Experimental data: paper PMC6047346 (Journal of medicinal chemistry, 2017)
Like-named read-outs stand apart in the source and are kept apart here.

Experiments:
human SphK2 = biological target: T1, human SphK2 (Homo sapiens, UniProt Q9NRA0); test: Sphingosine kinase assay, recombinant human SphK2, γ-[32P]ATP; conditions: for hSphK2 (SphK activity, % control, no inhibitor added): compounds at 0.3 μM, triplicate, 10 μM sphingosine, 250 μM γ-[32P]ATP; for inhibition at 0.3 µM: read-out: SphK2 inhibition (decrease of activity)
T1 sequence (Q9NRA0 1-654): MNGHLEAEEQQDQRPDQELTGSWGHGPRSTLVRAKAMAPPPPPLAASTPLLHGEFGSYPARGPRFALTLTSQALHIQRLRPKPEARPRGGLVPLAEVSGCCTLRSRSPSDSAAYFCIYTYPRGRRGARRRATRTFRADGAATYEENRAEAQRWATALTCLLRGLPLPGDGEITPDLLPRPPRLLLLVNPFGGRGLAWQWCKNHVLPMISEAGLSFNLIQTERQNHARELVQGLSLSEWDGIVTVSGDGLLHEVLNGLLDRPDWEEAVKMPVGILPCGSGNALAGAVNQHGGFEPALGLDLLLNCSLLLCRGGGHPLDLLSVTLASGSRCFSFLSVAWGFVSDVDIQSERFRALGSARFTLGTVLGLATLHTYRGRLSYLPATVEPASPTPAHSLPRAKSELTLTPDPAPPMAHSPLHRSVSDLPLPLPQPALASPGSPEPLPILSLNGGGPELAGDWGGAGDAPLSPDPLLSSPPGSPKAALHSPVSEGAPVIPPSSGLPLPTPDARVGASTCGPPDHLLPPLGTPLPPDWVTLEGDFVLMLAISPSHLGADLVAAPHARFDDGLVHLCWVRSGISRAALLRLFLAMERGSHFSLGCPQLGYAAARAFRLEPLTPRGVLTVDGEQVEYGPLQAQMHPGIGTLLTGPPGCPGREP

human SphK1 = human SphK1 (Homo sapiens, UniProt Q9NYA1); test: Sphingosine kinase assay, recombinant human SphK1, γ-[32P]ATP; conditions: for remaining activity at 0.3 µM: read-out: hSphK1 (SphK activity, % control, no inhibitor added)
Chain of human SphK1 (Q9NYA1 whole entry): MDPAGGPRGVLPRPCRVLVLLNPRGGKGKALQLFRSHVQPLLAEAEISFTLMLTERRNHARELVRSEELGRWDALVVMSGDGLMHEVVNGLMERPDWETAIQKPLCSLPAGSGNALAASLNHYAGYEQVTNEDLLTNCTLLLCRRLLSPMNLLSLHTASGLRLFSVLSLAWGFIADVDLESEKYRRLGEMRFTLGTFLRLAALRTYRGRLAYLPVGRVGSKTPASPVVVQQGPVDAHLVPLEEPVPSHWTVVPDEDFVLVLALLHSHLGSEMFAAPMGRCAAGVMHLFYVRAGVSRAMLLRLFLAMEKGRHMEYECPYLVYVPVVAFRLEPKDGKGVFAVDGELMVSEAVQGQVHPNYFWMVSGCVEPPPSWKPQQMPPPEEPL

U937 cells [1] = test: Sphingolipid; assay type: cell-based, human; conditions: 2 h incubation, LC-MS-MS
SphK1 = conditions: both the rat and human enzymes; cited from earlier work
rats = conditions: cited from earlier work
U937 cells [2] = conditions: cited from earlier work
C57BL/6 mice = test: Blood S1P levels in mice after ip dosing, LC-MS-MS; assay type: in vivo; conditions: single 10 mg/kg ip dose
[3] = read-out: SphK2 activity remaining
[4] = read-out: hSphK2 (SphK activity, % control, no inhibitor added)

Compound: N=C(N)N1CCC[C@H]1Cc1nc(-c2ccc(Nc3nc(-c4ccc(OC(F)(F)F)cc4)cs3)cc2)no1 [Compound 20r, (S)-amino(2-((3-(4-((4-(4-(trifluoromethoxy)phenyl)thiazol-2-yl)amino)phenyl)-1,2,4-oxadiazol-5-yl)methyl)pyrrolidin-1-yl)methaniminium chloride]
- remaining activity at 0.3 µM (human SphK2; [3]): ~40%
- remaining activity at 0.3 µM (human SphK2; [4]): 84 ± 2%

Compound: (S)-(2-((3-(4-((4-([1,1′-biphenyl]-4-yl)thiazol-2-yl)amino)phenyl)-1,2,4-oxadiazol-5-yl)methyl)pyrrolidin-1-yl)(amino)methaniminium chloride [Compound 34]
- hSphK2 (SphK activity, % control, no inhibitor added) (human SphK2): 100 ±5 % control
- SphK2 inhibition, in words (human SphK2; concentrations up to 1 μM): completely inactive

Compound: Cl.N=C(N)N1CCC[C@H]1Cc1nc(-c2ccc(Nc3nc(-c4ccc(-c5cccc(C(F)(F)F)c5)cc4)cs3)cc2)no1 [Compound 23d, (S)-amino(2-((3-(4-((4-(3′-(trifluoromethyl)-[1,1′-biphenyl]-4-yl)thiazol-2-yl)amino)phenyl)-1,2,4-oxadiazol-5-yl)methyl)pyrrolidin-1-yl)methaniminium chloride]
- SphK1 inhibition, in words (human SphK1; screen at 0.3 μM): inactive
- SphK2 inhibition, in words (human SphK2; screen at 0.3 μM): inactive

Compound: Cl.N=C(N)N1CCC[C@H]1Cc1nc(-c2ccc(Nc3nc(-c4cccnc4)cs3)cc2)no1 [Compound 20c, (S)-amino(2-((3-(4-((4-(pyridin-3-yl)thiazol-2-yl)amino)phenyl)-1,2,4-oxadiazol-5-yl)methyl)pyrrolidin-1-yl)methaniminium chloride]
- SphK1 inhibition, in words (human SphK1; screen at 0.3 μM): inactive
- SphK2 inhibition, in words (human SphK2; screen at 0.3 μM): inactive

Compound: Cl.N=C(N)N1CCC[C@H]1Cc1nc(-c2ccc(Nc3nc(-c4cccc(C(F)(F)F)c4)cs3)cc2)no1 [Compound 20l, (S)-amino(2-((3-(4-((4-(3-(trifluoromethyl)phenyl)thiazol-2-yl)amino)phenyl)-1,2,4-oxadiazol-5-yl)methyl)pyrrolidin-1-yl)methaniminium chloride]
- S1P levels in U937 cells (U937 cells [1]): concentration-dependent decrease
- Sph (sphingosine) levels in U937 cells (U937 cells [1]): remained constant

Compound: N=C(N)N1CCC[C@H]1Cc1nc(-c2ccc(Oc3nc(-c4ccc(C(F)(F)F)cc4)cs3)cc2)no1 [Compound 31, (S)-amino(2-((3-(4-((4-(4-(trifluoromethyl)phenyl)thiazol-2-yl)oxy)phenyl)-1,2,4-oxadiazol-5-yl)methyl)pyrrolidin-1-yl)methaniminium chloride]
- inhibition at 0.3 µM (human SphK1; read-out: SphK1 inhibition (decrease of activity)): ~45%
- inhibition at 0.3 µM (human SphK2): ~45%

Compound: (S)-amino(2-((3-(4-((4-(benzofuran-2-yl)thiazol-2-yl)amino)phenyl)-1,2,4-oxadiazol-5-yl)methyl)pyrrolidin-1-yl)methaniminium chloride [Compound 20ee]
- hSphK2 (SphK activity, % control, no inhibitor added) (human SphK2): 67 ±5 % control

Compound: COc1ccc(-c2csc(Nc3ccc(-c4noc(C[C@@H]5CCCN5C(=N)N)n4)cc3)n2)cc1 [Compound 20o, (S)-amino(2-((3-(4-((4-(4-methoxyphenyl)thiazol-2-yl)amino)phenyl)-1,2,4-oxadiazol-5-yl)methyl)pyrrolidin-1-yl)methaniminium chloride]
- remaining activity at 0.3 µM (human SphK1): 58 ± 4%
- inhibition at 0.3 µM (human SphK2): < 30%
- remaining activity at 0.3 µM (human SphK2; [4]): 82 ± 6%

Compound: N=C(N)N1CCC[C@H]1Cc1nc(-c2ccc(Nc3nc(-c4ccncc4)cs3)cc2)no1.O=C(O)C(F)(F)F [Compound 20b, (S)-amino(2-((3-(4-((4-(pyridin-4-yl)thiazol-2-yl)amino)phenyl)-1,2,4-oxadiazol-5-yl)methyl)pyrrolidin-1-yl)methaniminium trifluoroacetate]
- SphK1 inhibition, in words (human SphK1; screen at 0.3 μM): inactive
- SphK2 inhibition, in words (human SphK2; screen at 0.3 μM): inactive

Compound: COc1ccc(-c2csc(Nc3ccc(-c4noc(C[C@@H]5CCCN5C(=N)N)n4)cc3)n2)cc1Cl.Cl [Compound 20v, (S)-amino(2-((3-(4-((4-(3-chloro-4-methoxyphenyl)thiazol-2-yl)amino)phenyl)-1,2,4-oxadiazol-5-yl)methyl)pyrrolidin-1-yl)methaniminium chloride]
- SphK1 inhibition, in words (human SphK1; screen at 0.3 μM): no SphK1 inhibition
- remaining activity at 0.3 µM (human SphK2; [3]): ~70%

Compound: CCCCCCCCc1ccc(-c2noc(C[C@@H]3CCCN3C(=N)N)n2)cc1 [Compound 3]
- selectivity for SphK1 over SphK2 (SphK1): > 100 fold
- S1P levels in the bloodstream of rats (rats): reduce S1P levels
- S1P levels in cultured human U937 leukemia cells (U937 cells [2]): reduce S1P levels

Compound: Cl.N=C(N)N1CCC[C@H]1Cc1nc(-c2ccc(Nc3nc(-c4ccc(-c5ccccc5)cc4)cs3)cc2)no1 [Compound 20dd, (S)-(2-((3-(4-((4-([1,1′-biphenyl]-4-yl)thiazol-2-yl)amino)phenyl)-1,2,4-oxadiazol-5-yl)methyl)pyrrolidin-1-yl)(amino)methaniminium chloride]
- blood S1P levels (C57BL/6 mice; after 24 hours): returned to basal levels
- blood S1P levels (C57BL/6 mice; two and six hour time points): increased
- S1P levels in U937 cells (U937 cells [1]): concentration-dependent decrease
- Sph (sphingosine) levels in U937 cells (U937 cells [1]): remained constant

Compound: CCOc1ccc(-c2csc(Nc3ccc(-c4noc(C[C@@H]5CCCN5C(=N)N)n4)cc3)n2)cc1 [Compound 20p, (S)-amino(2-((3-(4-((4-(4-ethoxyphenyl)thiazol-2-yl)amino)phenyl)-1,2,4-oxadiazol-5-yl)methyl)pyrrolidin-1-yl)methaniminium chloride]
- remaining activity at 0.3 µM (human SphK1): 75 ± 0.2%
- inhibition at 0.3 µM (human SphK2): < 30%
- remaining activity at 0.3 µM (human SphK2; [4]): 80 ± 7%

Compound: Cl.N=C(N)N1CCC[C@H]1Cc1nc(-c2ccc(Nc3nc(-c4ccccc4)cs3)cc2)no1 [Compound 20a, (S)-amino(2-((3-(4-((4-phenylthiazol-2-yl)amino)phenyl)-1,2,4-oxadiazol-5-yl)methyl)pyrrolidin-1-yl)methaniminium chloride]
- SphK1 inhibition, in words (human SphK1; screen at 0.3 μM): poor inhibition
- SphK2 inhibition, in words (human SphK2; screen at 0.3 μM): poor inhibition

Compound: Cl.N=C(N)N1CCC[C@H]1Cc1nc(-c2ccc(Nc3nc(-c4ccc(-c5ccc(C(F)(F)F)cc5)cc4)cs3)cc2)no1 [Compound 23c, (S)-amino(2-((3-(4-((4-(4′-(trifluoromethyl)-[1,1′-biphenyl]-4-yl)thiazol-2-yl)amino)phenyl)-1,2,4-oxadiazol-5-yl)methyl)pyrrolidin-1-yl)methaniminium chloride]
- SphK1 inhibition, in words (human SphK1; screen at 0.3 μM): inactive
- SphK2 inhibition, in words (human SphK2; screen at 0.3 μM): inactive

Compound: Cc1ccc(-c2csc(Nc3ccc(-c4noc(C[C@@H]5CCCN5C(=N)N)n4)cc3)n2)cc1 [Compound 20n, (S)-amino(2-((3-(4-((4-(p-tolyl)thiazol-2-yl)amino)phenyl)-1,2,4-oxadiazol-5-yl)methyl)pyrrolidin-1-yl)methaniminium chloride]
- remaining activity at 0.3 µM (human SphK1): 89 ± 0.7%
- inhibition at 0.3 µM (human SphK2): < 30%
- remaining activity at 0.3 µM (human SphK2; [4]): 44 ± 12%

Compound: N=C(N)N1CCC[C@H]1Cc1nc(-c2ccc(Nc3nc(-c4cccc(OC(F)(F)F)c4)cs3)cc2)no1 [Compound 20s, (S)-amino(2-((3-(4-((4-(3-(trifluoromethoxy)phenyl)thiazol-2-yl)amino)phenyl)-1,2,4-oxadiazol-5-yl)methyl)pyrrolidin-1-yl)methaniminium chloride]
- remaining activity at 0.3 µM (human SphK1): 90 ± 1%
- remaining activity at 0.3 µM (human SphK2; [4]): 100 ± 2%

Compound: Cl.N=C(N)N1CCC[C@H]1Cc1nc(-c2ccc(Nc3nc(-c4cc(C(F)(F)F)cc(C(F)(F)F)c4)cs3)cc2)no1 [Compound 20bb, (S)-amino(2-((3-(4-((4-(3,5-bis(trifluoromethyl)phenyl)thiazol-2-yl)amino)phenyl)-1,2,4-oxadiazol-5-yl)methyl)pyrrolidin-1-yl)methaniminium chloride]
- SphK1 inhibition, in words (human SphK1; concentrations up to 1 μM): inactive
